Test system: COR L88 complex tumor spheroid viability
Experiment: Anticancer human tumor COR L88 cell line growth inhibition;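 also: compound exposure lasted 7 days before viability readout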;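 as to viability, T/C: percent of DMSO vehicle-treated spheroids = 100%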
Conditions: for IC50: curve of first compound; for viability, T/C: stronger effect = lower value
How it was run: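 Complex spheroids of malignant cells with endothelial cells and mesenchymal stem cells; agents alone or combined, from near clinical Cmax (or 10 microM if unknown) down in half-log steps, 0.25% DMSO final.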

CC(C)n1c(=O)n(C)c2cnc3cc(F)c(-c4ccc(OCCCN5CCCCC5)nc4)cc3c21 + Cn1nnc2c(C(N)=O)ncn2c1=O
IC50 (second compound 1 µM): > 10 µM
IC50 (second compound 3.16 µM): > 10 µM
IC50 (second compound 10 µM): > 10 µM
IC50 (second compound 31.6 µM): 6.87 µM
IC50 (second compound 100 µM): 5.06 µM
viability, T/C (second compound 1 µM, first compound 0.0316 µM): 104%
viability, T/C (second compound 1 µM, first compound 0.1 µM): 97.7%
viability, T/C (second compound 1 µM, first compound 0.316 µM): 98.9%
viability, T/C (second compound 1 µM, first compound 1 µM): 94.5%
viability, T/C (second compound 1 µM, first compound 3.16 µM): 80.7%
viability, T/C (second compound 1 µM, first compound 10 µM): 52.8%
viability, T/C (second compound 3.16 µM, first compound 0.0316 µM): 96.2%
viability, T/C (second compound 3.16 µM, first compound 0.1 µM): 105%
viability, T/C (second compound 3.16 µM, first compound 0.316 µM): 98.2%
viability, T/C (second compound 3.16 µM, first compound 1 µM): 95.4%
viability, T/C (second compound 3.16 µM, first compound 3.16 µM): 80%
viability, T/C (second compound 3.16 µM, first compound 10 µM): 54.6%
viability, T/C (second compound 10 µM, first compound 0.0316 µM): 96.2%
viability, T/C (second compound 10 µM, first compound 0.1 µM): 91.6%
viability, T/C (second compound 10 µM, first compound 0.316 µM): 94.5%
viability, T/C (second compound 10 µM, first compound 1 µM): 91.2%
viability, T/C (second compound 10 µM, first compound 3.16 µM): 76.1%
viability, T/C (second compound 10 µM, first compound 10 µM): 50.8%
viability, T/C (second compound 31.6 µM, first compound 0.0316 µM): 87.1%
viability, T/C (second compound 31.6 µM, first compound 0.1 µM): 84.8%
viability, T/C (second compound 31.6 µM, first compound 0.316 µM): 87.5%
viability, T/C (second compound 31.6 µM, first compound 1 µM): 80.9%
viability, T/C (second compound 31.6 µM, first compound 3.16 µM): 67.4%
viability, T/C (second compound 31.6 µM, first compound 10 µM): 41.2%
viability, T/C (second compound 100 µM, first compound 0.0316 µM): 72.5%
viability, T/C (second compound 100 µM, first compound 0.1 µM): 69%
viability, T/C (second compound 100 µM, first compound 0.316 µM): 74%
viability, T/C (second compound 100 µM, first compound 1 µM): 76%
viability, T/C (second compound 100 µM, first compound 3.16 µM): 56.9%
viability, T/C (second compound 100 µM, first compound 10 µM): 40.1%

Reference: PubChem BioAssay AID1845201 (Molecular Pharmacology Branch, DTP, NCI, 2023)
